Measured values from patent US20260265189A1, “NOVEL COMPOUND, AND PHARMACEUTICAL COMPOSITION COMPRISING SAME AS ACTIVE INGREDIENT” (SAPIENSBIO INC., priority 2022, published 2026).

Key:
[1] = system: F-actin in MRC5 cells; assay: inhibition of F-actin formation in TGF-β1-treated MRC5 cells (confocal imaging); assay type: cell-based, human; conditions: TGF-β1 5 ng/mL, 70 hours; for intracellular F-actin formation: MRC5, compound 10 μM, FIGS. 2C, 2D
Protocol: (§1) It is known that when the process of pulmonary fibrosis results in structural changes in cells, the level of F-actin increases. Therefore, to confirm the therapeutic efficacy of the compounds of the present invention for pulmonary fibrosis-related diseases, the structural changes of cells after treating fibrosis-induced MRC5 with the compounds of the present invention were measured by the degree of inhibition of F-actin and α-SMA formation.
(§2) Specifically, MRC5 cells were treated with Compound 32 (10 μM) or Compound 42 (10 μM) according to the present invention, CK-666 (actin polymerization inhibitor, 10 μM), nintedanib (1 μM), or DMSO, which had been dissolved in a 0.5% fetal bovine serum (FBS)-containing medium, and 2 hours later, the cells were treated with TGF-β1 (5 ng/mL) to cause fibrosis. Due to strong cytotoxicity of the drug of nintedanib, all cells die when treated with nintedanib at the same concentration (10 μM) as that of the compound of the present invention, so it is impossible to conduct a comparative experiment. Therefore, the effect was confirmed by treating the cells with 1 μM nintedanib. 70 hours later, the cells were fixed with a 2% paraformaldehyde solution for 10 minutes, treated with a 0.1% Triton X-100 solution for 10 minutes to provide cell membrane permeability, and treated with a 1% bovine serum albumin (BSA) solution to prevent non-specific binding. […] High-resolution F-actin images acquired with a STELLARIS 5 confocal microscope (Leica) were quantitatively represented by standardizing F-actin stained with rhodamine phalloidin using Alexa Fluor™ Plus 488-labeled GAPDH using self-developed analysis software through programming. […] High-resolution α-SMA images acquired with a STELLARIS 5 confocal microscope (Leica) were quantitatively represented by standardizing α-SMA stained with an anti-α-SMA-FITC antibody with Alexa Fluor™ Plus 488-labeled GAPDH using self-developed analysis software through programming.

[2] = system: α-SMA in MRC5 cells; assay: inhibition of α-SMA formation in TGF-β1-treated MRC5 cells (confocal imaging); assay type: cell-based, human; conditions: TGF-β1 5 ng/mL, 70 hours; for intracellular α-SMA formation: MRC5, compound 10 μM, FIGS. 2A, 2B
Protocol: as §1, §2

[3] = system: α-SMA expression in MRC5 cells; assay: inhibition of α-SMA expression in MRC5 cells, image screening method; assay type: cell-based; conditions: Homo sapiens; MRC5, compound 10 μM, TGF-β1 5 ng/mL, 72 hours, relative to TGF-β1 alone; read-out: Inhibitory activity (α-SMA expression inhibition)
Procedure, shortened: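 MRC5 cells exposed to compound (10 μM) or DMSO with TGF-β1 (5 ng/mL) for 72 h, then fixed, permeabilised, blocked and immunostained for α-SMA (FITC) and GAPDH. Image-based quantitation; α-SMA level with compound plus TGF-β1 expressed relative to TGF-β1 alone.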

[4] = system: IL-6 secretion by M1 macrophages derived from THP-1; assay: IL-6 secretion by LPS-activated THP-1-derived M1 macrophages (cytometric bead array); assay type: cell-based, human; conditions: LPS 10 ng/mL 6 hours, compound 1 μM or 10 μM, FIG. 3
Protocol: IL-6 is one of the pro-inflammatory cytokines secreted by activated macrophages, M1 macrophages, and is a potent trigger of fibrosis. Therefore, to evaluate the inhibitory activity of the compounds according to the present invention to inhibit pulmonary fibrosis through the inhibition of inflammatory effects, the extent of IL-6 secretion by macrophages after treatment of activated macrophages with the compounds was compared.
First, macrophages were prepared through the following process: 1 mL of a medium containing 5×10^5 cells/mL of THP-1 cells (Korean Cell Line Bank; KCLB NO. 40202) grown in a complete medium (a medium in which Roswell Park Memorial Institute [RPMI] is supplemented with 10% [vol/vol] fetal bovine serum [FBS] and 1% [vol/vol] penicillin/streptomycin [P/S]) was dispensed by 1 mL into each well of a 12-well plate. […]
Subsequently, the measurement of a cytokine level was performed through the following process: the secured complete medium was centrifuged at 13,000 RPM for 10 minutes in a 4° C. centrifuge, and then a supernatant was transferred to a new 1.5 mL microcentrifuge tube. […] The amount of IL-6 binding to the beads was measured using a Novocyte 3000 flow cytometer (Agilent).

[5] = cited from earlier work; for lung function improvement: clinical use as therapeutic drug for pulmonary fibrosis
[6] = system: MRC5 cells; assay: cytotoxicity in MRC5 cells; assay type: cell-based, human; conditions: 10 μM
[7] = system: α-SMA expression in MRC5 cells; conditions: stated as known; cited from earlier work

Row | Compound | intracellular F-actin formation [1] | intracellular α-SMA formation [2] | inhibition at 10 µM [3] [%] | IL-6 production [4] | lung function improvement [5] | F-actin formation ([1]; MRC5, nintedanib 1 μM) | effect of inhibiting α-SMA formation ([2]; MRC5, nintedanib 1 μM) | cytotoxicity [6] | α-SMA inhibitory activity [7] [%] | therapeutic effect ([5]; IPF treatment, stated as known) [%]
1 | CC(C)CN1CCC(NC(=O)N2CCN(c3ccc(F)cc3)c3cc(F)ccc32)CC1 [Compound 32, 6-fluoro-4-(4-fluorophenyl)-N-(1-isobutylpiperidin-4-yl)-3,4-dihydroquinoxaline-1(2H)-carboxamide] | decreased to a level similar to that in the group not treated with TGF-β1 | decreased to a level similar to that in the group not treated with TGF-β1 | ≥ 70 | decrease |  |  |  |  |  | 
2 | CC(C)N1CC(NC(=O)N2CCN(c3ccc(F)cc3)c3cc(F)ccc32)C1 [Compound 42, 6-fluoro-4-(4-fluorophenyl)-N-(1-isopropylazetidin-3-yl)-3,4-dihydroquinoxaline-1(2H)-carboxamide] | decreased to a level similar to that in the group not treated with TGF-β1 | decreased to a level similar to that in the group not treated with TGF-β1 | 50 to 70 | decrease |  |  |  |  |  | 
3 | Cc1ccc(=O)n(-c2ccccc2)c1 [Pirfenidone] |  |  |  |  | about 10% |  |  |  |  | 
4 | COC(=O)c1ccc2c(c1)NC(=O)/C2=C(\Nc1ccc(N(C)C(=O)CN2CCN(C)CC2)cc1)c1ccccc1 [nintedanib] |  |  |  |  | about 10% | did not inhibit | lower than Compounds 32 and 42 | all cells die | 0 | 10
